From article PMC9933715 (Antimicrobial Agents and Chemotherapy, 2023)
Read-outs that look alike come from different tables or passages of the source.

Columns and labels:
[1] = system: DENV-R2A (Rluc-expressing DENV, serotype 2 strain 16681); test: microbe, parasite or virus in culture; format: cell-based, Dengue virus; conditions: for activity at 50 µM: Dengue virus, Huh7.5, 48 h; for inhibitory activity against DENV-R2A (SAR, in words) / antiviral activity against DENV-R2A (SAR, in words): 50 μM; for antiviral activity against DENV-R2A (SAR, in words): NPP3C analogues
[2] = system: Huh7.5 cells; test: Cell viability, CellTiter-Glo luminescent assay
[3] = read-out: DENV-R2A replication (Fold DMSO), 6A1HI analogues, test concentration = 50 µM, Huh7.5 cells
[4] = read-out: DENV-R2A replication (Fold DMSO), Table S3, NPP3C analogues, 50 µM, Huh7.5, 2 days postinfection
[5] = read-out: DENV-R2A replication (fold DMSO), Table 2, 6A1HI analogues, 50 μM, Huh7.5, 2 days postinfection
[6] = 6A1HI analogues, test concentration = 50 µM, Huh7.5 cells
[7] = Table 2, 6A1HI analogues, 50 μM, Huh7.5, 2 days
[8] = Table S3, NPP3C analogues, 50 µM, Huh7.5
[9] = read-out: DENV-R2A replication (fold DMSO), Table 1, NPP3C analogues, 50 μM, Huh7.5, 2 days postinfection
[10] = Table S3, NPP3C analogues, 50 µM, Huh7.5, 2 days postinfection
[11] = Table 1, NPP3C analogues, 50 μM, Huh7.5, 2 days

| SMILES | activity at 50 µM [1, 3] [%] | activity at 50 µM [1, 4] [%] | activity at 50 µM [1, 5] [%] | Cell viability (Fold DMSO) [2, 6] [Fold DMSO] | Cell viability (Fold DMSO) [2, 7] [fold DMSO] | Cell viability (Fold DMSO) [2, 8] [Fold DMSO] | inhibitory activity against DENV-R2A (SAR, in words) ([1]; 6A1HI analogues) | activity at 50 µM [1, 9] [%] | DENV-R2A replication (Fold DMSO) [1, 6] [Fold DMSO] | DENV-R2A replication (Fold DMSO) [1, 10] [Fold DMSO] | Cell viability (Fold DMSO) [2, 11] [fold DMSO] | antiviral activity against DENV-R2A (SAR, in words) [1] |
| --- | --- | --- | --- | --- | --- | --- | --- | --- | --- | --- | --- | --- |
| OCc1ccc2cn[nH]c2c1 [Compound 3] | 110 | 89 | 110 | 0.93 | 0.93 | 0.94 | – | – | – | – | – | – |
| CC(=O)c1ccc2cn(C)nc2c1 [Compound 4] | 97 | 105 | 97 | 0.75 | 0.75 | 0.96 | loss of inhibitory activity | – | – | – | – | – |
| NCc1ccc2cn[nH]c2c1 [Compound 6] | 96 | 55 | 96 | 0.76 | 0.76 | 0.77 | – | – | – | – | – | – |
| O=C(Nc1ccccc1)N1CCNCC1 [Compound 7] | 105 | – | 105 | – | – | – | – | 82 | – | – | – | – |
| CC(=O)c1cccc2cn[nH]c12 [Compound 9] | 90 | 107 | 90 | 1.03 | 1.03 | 0.96 | inhibitory activity was completely lost | – | – | – | – | – |
| Nc1cccc(-c2cccnc2)c1 [Compound 10] | – | – | – | 0.93 | – | 0.93 | – | – | 1.00 | 1.04 | – | – |
| Oc1ccc2[nH]ncc2c1 [Compound 18] | 106 | 101 | 106 | 0.98 | 0.98 | 0.95 | – | – | – | – | – | – |
| O=C(Nc1ccncc1)c1ccccc1 [Compound 28] | – | – | – | 0.48 | – | 1.05 | – | – | 0.09 | 1.05 | – | – |
| O=C(Nc1ccccc1Cl)c1cccnc1 [Compound 29] | 55 | – | – | 0.96 | – | 0.95 | – | 99 | – | – | 0.95 | – |
| O=C(c1ccccc1)c1cccnc1 [Compound 33] | – | – | – | 0.89 | – | 0.95 | – | – | 0.95 | 1.14 | – | – |
| O=C(NC1CC1)c1ccc(C(F)(F)F)nc1 [Compound 41] | – | – | – | 0.98 | – | 0.90 | – | – | 1.13 | 1.24 | – | – |
| CC(=O)c1ccc2c(c1)OCO2 [Compound 42] | 107 | 153 | 107 | 0.93 | 0.93 | 1.15 | loss of inhibitory activity | – | – | – | – | – |
| O=C(Nc1cccc(B(O)O)c1)c1cccnc1 [Compound 52] | 115 | – | 115 | – | – | – | – | 107 | – | – | – | – |
| O=C(NNc1ccccc1)c1ccncc1 [Compound 54] | 106 | – | – | 0.95 | – | 0.67 | – | 37 | – | – | 0.67 | retains little activity, if any |
| c1ccc(NCc2cccnc2)cc1 [Compound 63] | 81 | – | – | – | – | – | – | 138 | – | – | – | retains little activity, if any |
